Test results: US20210361771A1, “TERPENE COUPLING CONJUGATE” (LABORATOIRES ERIGER, priority 2020, published 2021)
Where “and” joins values, the source holds several entries; their conditions need not be identical. Identical values can stand only once.

Columns and labels:
[1] = Stability of the nanoparticulate suspensions over time (DLS); format: physicochemical; conditions: suspension stored at 23° C.
Method: The mean particle sizes were measured using the “Dynamic Light Scattering” (DLS) method on a Malvern-Panalytical Nano-Sizer ZS® at 25° C. with a detection angle of 173° and a wavelength of 633 nm. The reported sizes are determined by the mean of three measurements. The measurements were carried out in polystyrene cuvettes.
A solution of conjugate in EtOH (2 mg for 0.5 mL) is added dropwise to vigorously stirred MiliQ water (1 mL). The formation of nanoparticles is observed in that the solution becomes partially cloudy. The suspension that is thus obtained is transferred to a flask and the EtOH is evaporated on a rotary evaporator (200 mbar for 5 min, then 130 mbar for 1 min at 40° C. and at 50 revolutions per minute).
The residual suspension is transferred to a vial and stored at 23° C.
The samples are prepared as follows: 40 μL of the residual suspension is dissolved in 500 μL of MiliQ H2O.
The stability of the suspensions was measured over time and the results are summarized in Tables 2 and 3 and in the graph of FIG. 1 and in the graph of FIG. 2.

[2] = Influence of phytolization on the stability of retinol, HPLC monitoring; format: physicochemical; conditions: for A (mU), HPLC area, single measurement: 6 mg/L in H2O/iPrOH 1:1, 21° C., ambient light; for A (mU), HPLC area, Average: average of two measurements
Method: The HPLC analyzes were carried out with an “Ultimate 3000 system” chain, Dionex®, France on a C18 “Vintage series KR C18—5 μm-150×4.6 mm (Interchim®) column. The samples were detected by UV absorption at λ=325 nm.
Vitamin A (retinol) is known to be sensitive to oxygen and UV radiation. The phytolization process allows retinol to be stabilized.
The solutions of retinol and conjugate 9 in nanoparticulate form (6 mg/L in an H2O/iPrOH 1:1 mixture) were stored at 21° C. in ambient light and analyzed by HPLC over time (24 and 48 h).
The variation in the area of the compounds over time is shown over time (average of two measurements)—see Table 5 and the graph of FIG. 3.

Row | d (nm) ([1]; Time 1 h) | d (nm) ([1]; Time 24 h) | d (nm) ([1]; Time 168 h) | d (nm) ([1]; Time 196 h) | Variation of areas ([2]; t0) | A (mU), HPLC area, single measurement ([2]; t0) | A (mU), HPLC area, Average ([2]; t0) [mU] | A (mU), HPLC area, single measurement ([2]; t24 h) | A (mU), HPLC area, Average ([2]; t24 h) [mU] | Variation of areas ([2]; t24 h vs t0) | A (mU), HPLC area, single measurement ([2]; t48 h) | A (mU), HPLC area, Average ([2]; t48 h) [mU] | Variation of areas ([2]; t48 h vs t0) | Breakdown rate of free retinol compared with conjugate 9 ([2]; free form vs nanoparticulate conjugate, 48 h) | Molecule
1 | 167.4 | 165.2 | 151.8 | 131.3 | 0.0000 | 4.1604 mU and 4.0495 mU | 4.1050 | 3.4609 mU and 3.3380 mU | 3.3995 | 0.1719 | 2.9536 mU and 2.9385 mU | 2.9461 | 0.2823 | – | CC1=C(/C=C/C(C)=C/C=C/C(C)=C/COC(=O)CCC(=O)OC/C=C(\C)CCC[C@H](C)CCC[C@H](C)CCCC(C)C)C(C)(C)CCC1 [Conjugate 9, Phytyl Retinyl Succinate]
2 | – | – | – | – | 0.0000 | 0.0502 mU and 0.0694 mU | 0.0598 | 0.0354 mU and 0.0360 mU | 0.0357 | 0.4030 | 0.0218 mU and 0.0273 mU | 0.0246 | 0.5895 | twice as quickly | CC1=C(/C=C/C(C)=C/C=C/C(C)=C/CO)C(C)(C)CCC1 [Retinol, retinol]

The remaining lines, values behind:

Row | Molecule | d (nm) ([1]; Time 1 h) | d (nm) ([1]; Time 24 h) | d (nm) ([1]; Time 168 h) | d (nm) ([1]; Time 196 h) | Variation of areas ([2]; t0) | A (mU), HPLC area, single measurement ([2]; t0) | A (mU), HPLC area, Average ([2]; t0) [mU] | A (mU), HPLC area, single measurement ([2]; t24 h) | A (mU), HPLC area, Average ([2]; t24 h) [mU] | Variation of areas ([2]; t24 h vs t0) | A (mU), HPLC area, single measurement ([2]; t48 h) | A (mU), HPLC area, Average ([2]; t48 h) [mU] | Variation of areas ([2]; t48 h vs t0) | Breakdown rate of free retinol compared with conjugate 9 ([2]; free form vs nanoparticulate conjugate, 48 h)
3 | Phytyl Diclofenate [Conjugate 4] | 270.0 | 369.7 | 502.4 | 436.8 | – | – | – | – | – | – | – | – | – | –
4 | C/C(=C\COC(=O)CCC(=O)OC1CCC(C(C)(C)C)CC1)CCC[C@H](C)CCC[C@H](C)CCCC(C)C (mixture of isomers) [Conjugate 7, Phytyl (4-tert-butyl cyclohexyl) succinate] | 256.2 | 269.7 | 271.2 | 269.6 | – | – | – | – | – | – | – | – | – | –
5 | Phytyl Ibuprofenate [Conjugate 3] | 132.9 | 154.5 | 156.6 | 164.1 | – | – | – | – | – | – | – | – | – | –
